According to US10294202B2, “Pyrrolidinones as herbicides” (FMC Corporation, priority 2013, dated 2019):

Assays:
blackgrass = test: Test C pre-/postemergence herbicide test; assay type: in vivo, Alopecurus myosuroides; conditions: Preemergence
In short: (§1)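 Pre-emergence: seeds sown in loam/sand blend and treated with compound in surfactant-containing solvent. Post-emergence: plants at 2–18 cm (1- to 4-leaf stage) in peat-based medium sprayed with the same formulation. Visual rating versus controls after 13–15 days in greenhouse, scale 0 (no effect) to 100 (complete control).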

waterhemp = test: Test C pre-/postemergence herbicide test; assay type: in vivo, Amaranthus rudis; conditions: Preemergence
In short: as §1

wheat = test: Test A pre-/postemergence herbicide test; assay type: in vivo, Triticum aestivum; conditions: Postemergence
In short: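 Seeds in loam–sand blend received preemergence directed soil spray; separately, plants 2–10 cm at one- to two-leaf stage received postemergence spray, both with test chemicals in non-phytotoxic solvent with surfactant. After ~10 days in greenhouse, injury rated visually against untreated controls, 0 (no effect) to 100 (complete control).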

pigweed = test: Test C pre-/postemergence herbicide test; assay type: in vivo, Amaranthus retroflexus; conditions: Preemergence
In short: as §1

johnsongrass = test: Test C pre-/postemergence herbicide test; assay type: in vivo, Sorghum halepense; conditions: Preemergence
In short: as §1

wheat (winter wheat) = test: Test C pre-/postemergence herbicide test; assay type: in vivo, Triticum aestivum; conditions: Preemergence
In short: as §1

crabgrass, large = test: Test C pre-/postemergence herbicide test; assay type: in vivo, Digitaria sanguinalis; conditions: Preemergence
In short: as §1

galium = test: Test C pre-/postemergence herbicide test; assay type: in vivo, Galium aparine; conditions: Preemergence
In short: as §1

lambsquarters = test: Test C pre-/postemergence herbicide test; assay type: in vivo, Chenopodium album; conditions: Preemergence
In short: as §1

morningglory = test: Test C pre-/postemergence herbicide test; assay type: in vivo, Ipomoea coccinea; conditions: Preemergence
In short: as §1

sedge, umbrella = test: Test B flooded paddy test; assay type: in vivo, Cyperus difformis; conditions: 500 g ai/ha, Flood; scale of 0 to 100 where 0 is no effect and 100 is complete control
In short: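 2-leaf plants; flood 3 cm over soil; compound into paddy water; depth held. Greenhouse 13–15 d. Visual rating vs controls, 0 (no effect) to 100 (complete control); dash = not tested.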

[1] = 31 g ai/ha, scale 0 to 100, 0 is no effect and 100 is complete control
[2] = 62 g ai/ha, scale 0 to 100 (0 no effect, 100 complete control)
[3] = 125 g ai/ha, scale 0 to 100 (0 no effect, 100 complete control)

Compound: O=C(Nc1ccccc1F)C1C(=S)NCC1c1cccc(C(F)(F)F)c1 (stereo not shown) [Compound 274]
- Blackgrass plant response rating (blackgrass; [1]): 0
- Blackgrass plant response rating (blackgrass; [2]): 70
- Plant response rating, Blackgrass (blackgrass; [3]): 75
- Plant response rating (scale of 0 to 100), Blackgrass (blackgrass; 250 g ai/ha): 90
- Waterhemp plant response rating (waterhemp; [1]): 0
- Waterhemp plant response rating (waterhemp; [2]): 0
- Plant response rating (scale of 0 to 100), Waterhemp (waterhemp; 250 g ai/ha): 0
- Plant response rating, Wheat (wheat; 125 g ai/ha, visual rating on 0 to 100 scale (0 no effect, 100 complete control), approx. 10 days): 0
- Plant response rating, Wheat (wheat; 1000 g ai/ha, 0 to 100 scale (0 no effect, 100 complete control)): 40
- Pigweed plant response rating (pigweed; [1]): 0
- Pigweed plant response rating (pigweed; [2]): 0
- Plant response rating, Pigweed (pigweed; [3]): 0
- Plant response rating (scale of 0 to 100), Pigweed (pigweed; 250 g ai/ha): 0
- Johnsongrass plant response rating (johnsongrass; [1]): 0
- Johnsongrass plant response rating (johnsongrass; [2]): 0
- Plant response rating, Johnsongrass (johnsongrass; [3]): 0
- Plant response rating (scale of 0 to 100), Johnsongrass (johnsongrass; 250 g ai/ha): 30
- Wheat plant response rating (wheat (winter wheat); [1]): 0
- Wheat plant response rating (wheat (winter wheat); [2]): 0
- Plant response rating (scale of 0 to 100), Wheat (wheat (winter wheat); 250 g ai/ha): 40
- Crabgrass, Large plant response rating (crabgrass, large; [1]): 85
- Crabgrass, Large plant response rating (crabgrass, large; [2]): 90
- Plant response rating, Crabgrass, Large (crabgrass, large; [3]): 98
- Plant response rating (scale of 0 to 100), Crabgrass, Large (crabgrass, large; 250 g ai/ha): 100
- Galium plant response rating (galium; [1]): 0
- Galium plant response rating (galium; [2]): 0
- Plant response rating, Galium (galium; [3]): 80
- Lambsquarters plant response rating (lambsquarters; [2]): 0
- Plant response rating (scale of 0 to 100), Lambsquarters (lambsquarters; 250 g ai/ha): 0
- Morningglory plant response rating (morningglory; [1]): 0
- Morningglory plant response rating (morningglory; [2]): 0
- Plant response rating, Morningglory (morningglory; [3]): 0
- Plant response rating (scale of 0 to 100), Morningglory (morningglory; 250 g ai/ha): 0
- Plant response rating, Sedge, Umbrella (sedge, umbrella): 0
